Values quoted from earlier work, collected in patent US4127537A, “Novel tetracosapeptides, intermediates therefor and pharmaceutical compositions and methods employing said tetracosapeptides” (priority 1977, dated 1978).

Columns and labels:
rat = settings: injected directly into the brain of the rat; Belluzzi et al., Nature 260, 625 (1976)
[1] = tested on: brain opiate receptor sites; settings: natural peptide; Bradbury et al., Nature 260, 793 (1976)

**Q.** With “H-Tyr-Gly-Gly-Phe-Met-OH [methionine enkephalin]” as the substance, how does the analgesic activity (rat) read?
**A.** weak analgesic agent of short duration

**Q.** And the “binding to partially purified brain opiate receptor sites” value [1]?
**A.** binds stereo-specifically
